Results taken from patent US6017512A, “Radiolabeled peptides” (Diatide, Inc., priority 1997, dated 2000).
Numbered stars: 1 amine (or outer) side, 2 acyl side, 3 side chain; on linkers, the order of the positions; unused ones are H or OH. Bridge positions count the residues as written; N and C are the ends. Square brackets hold non-standard residues; d marks the D form. Peptide text beside a SMILES is read from it. * marks the point of attachment. hhCys(CH2CO) = O=C([C@H](CCCSCC(=O)[*:3])N[*:1])[*:2]; X9 = CC(C)(S)CNCCN(CCCCC(=O)*)CC(C)(C)S; X3 = CC(C)(S)CNCCN(CCCCCN*)CC(C)(C)S; NMeF = CN[C@@H](Cc1ccccc1)C(=O)O; hCys = N[C@@H](CCS)C(=O)O

Target: T1, somatostatin receptors (Rattus norvegicus, UniProt P30680)
T1 construct: endogenous in cells; host or cells: AR42J rat pancreatic tumor cell line, membrane preparation
Test: Inhibition of binding of [125I-Tyr11]somatostatin-14 to AR42J rat pancreatic tumor cell membranes
Conditions: uncomplexed peptides, displacement of [125I-Tyr11]somatostatin-14 (0.5 nM)
Procedure: Inhibition of Binding of [^125 I-Tyr^11 ]somatostatin-14 to AR42J Rat Pancreatic Tumor Cell Membranes
The rat pancreatic tumor cell line AR42J which expresses the somatostatin receptor was cultured in Dulbecco's minimal essential media (DMEM) supplemented with 10% fetal bovine serum (FBS) and 8 mM glutamine in a humidified 5% CO2 atmosphere at 37° C. in T-flasks. Harvested cells were homogenized in cold 50 mM Tris-HCl buffer (pH 7.4) and the homogenate then centrifuged at 39,000 g for 10 min at 4° C. Pellets were washed once with buffer and then resuspended in an ice-cold solution of 10 mM Tris-HCl (pH 7.4). Equal aliquots of this cell membrane preparation were incubated with [^125 I-Tyr^11 ]somatostatin-14 (at a final concentration of 0.5 nM and 750,000 cpm/mL, at a specific activity of 2000 Ci/mmol, Amersham, Arlington Heights, Ill.) and peptide or peptide-rheniumcomplex at a final concentration of from 10^-11 M to 10^-6 M in a solution of 50 mM HEPES (pH 7.4) containing 1% bovine serum albumin (BSA), 5 mM MgCl2, Trasylol (200,000 International Units), bacitracin (0.02 mg/mL) and phenylmethylsulfonylfluoride (0.02 mg/mL) for 25 min at 30° C. Using a filtration manifold, this mixture was filtered through a polyethyleneimine-washed GC/F filter (Whatman, Maidstone, England), and the residue remaining on the filter washed thrice with 5 mL cold HEPES buffer. The filter and a sample of the filter washings were then counted in a gamma counter. To assess non-specific binding, the assay was performed in the presence of unlabeled somatostatin-14 at 200 nM. Data analysis including Hill plots of the data provided inhibition constants (see Bylund & Yamamura, "Methods of receptor binding", in Methods in Neurotransmitter Receptor Analysis, Yamamura et al., eds., Raven Press: New York, 1990).

T1 sequence (P30680 whole entry): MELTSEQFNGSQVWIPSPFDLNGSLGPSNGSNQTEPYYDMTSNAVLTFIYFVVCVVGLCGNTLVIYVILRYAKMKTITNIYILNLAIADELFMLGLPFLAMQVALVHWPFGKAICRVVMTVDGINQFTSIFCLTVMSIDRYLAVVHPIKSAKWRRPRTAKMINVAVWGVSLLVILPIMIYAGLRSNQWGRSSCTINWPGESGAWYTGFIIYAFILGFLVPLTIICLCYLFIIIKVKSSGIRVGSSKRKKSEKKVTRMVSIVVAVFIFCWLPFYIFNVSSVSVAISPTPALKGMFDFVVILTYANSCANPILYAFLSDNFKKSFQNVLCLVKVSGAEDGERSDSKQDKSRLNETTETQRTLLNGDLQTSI

`CC(C)[C@@H]1NC(=O)[C@H](CCCCN)NC(=O)[C@@H](Cc2c[nH]c3ccccc23)NC(=O)[C@H](Cc2ccc(O)cc2)NC(=O)[C@H](Cc2ccccc2)N(C)C(=O)[C@H](CCC(=O)NCCCCCN(CCNCC(C)(C)S)CC(C)(C)S)NC1=O` [cyclo.(N--CH3)F.YWD KV.E.[BAM], cyclo.(N--CH3)Phe--Tyr--D--Trp--Lys--Val--Glu(BAM)] (cyclo([NMeF]Y[dW]KVE(X3))) was tested, and the Ki was 2.6 nM.

Compound `C[C@@H](O)[C@@H]1NC(=O)[C@H](CCCCN)NC(=O)[C@@H](Cc2c[nH]c3ccccc23)NC(=O)[C@H](Cc2ccccc2)NC(=O)[C@H](Cc2ccccc2)NC(=O)CSC[C@@H](C(N)=O)NC(=O)[C@H](Cc2ccccc2)NC1=O` [CH2 CO.FFWD KTFC.amide] ({CH2CO}-FF[dW]KTFC-NH2; thioether N-7) has a Ki of 0.45 nM.

`C[C@@H](O)[C@@H]1NC(=O)[C@H](CCCCN)NC(=O)[C@@H](Cc2c[nH]c3ccccc23)NC(=O)[C@H](Cc2ccccc2)NC(=O)[C@H](Cc2ccccc2)NC(=O)CSCCC[C@@H](C(N)=O)NC(=O)[C@H](Cc2ccccc2)NC1=O` [CH2 CO.FFWD KTF.Hhc.amide] (FF[dW]KTF[hhCys(CH2CO)]-NH2; lactam N-7) was tested, and the Ki was 0.41 nM.

For `C[C@@H](O)[C@@H]1NC(=O)[C@H](CCCCN)NC(=O)[C@@H](Cc2c[nH]c3ccccc23)NC(=O)[C@H](Cc2ccccc2)NC(=O)[C@H](Cc2ccccc2)NC(=O)CSCC[C@@H](C(=O)O)NC(=O)[C@H](Cc2ccccc2)NC1=O` [CH2 CO.FFWD KTF.Hcy] ({CH2CO}-FF[dW]KTF[hCys]-OH; thioether N-7), the Ki was 9.8 nM.

`C[C@@H](O)[C@@H]1NC(=O)[C@H](CCCCN)NC(=O)[C@@H](Cc2c[nH]c3ccccc23)NC(=O)[C@H](Cc2ccccc2)NC(=O)[C@H](Cc2ccccc2)NC(=O)CSC[C@@H](C(=O)NCCCCCN(CCNCC(C)(C)S)CC(C)(C)S)NC(=O)[C@H](Cc2ccccc2)NC1=O` [CH2 CO.FFWD KTFC.[BAM]] ({CH2CO}-FF[dW]KTFC-X3; thioether N-7) was tested, and the Ki was 1.9 nM.

`C[C@@H](O)[C@@H]1NC(=O)[C@H](Cc2ccccc2)NC(=O)[C@H]([C@@H](C)O)NC(=O)[C@H](CCCCN)NC(=O)[C@@H](Cc2c[nH]c3ccccc23)NC(=O)[C@H](Cc2ccccc2)NC(=O)[C@H](Cc2ccccc2)NC(=O)[C@H](CC(N)=O)NC(=O)CSC[C@@H](C(=O)O)NC1=O` [CH2 CO.NFFWD KTFTC] ({CH2CO}-NFF[dW]KTFTC-OH; thioether N-9) was tested, and the Ki was 2.7 nM.

For `C[C@@H](O)[C@@H]1NC(=O)[C@H](CCCCN)NC(=O)[C@@H](Cc2c[nH]c3ccccc23)NC(=O)[C@H](Cc2ccc(O)cc2)NC(=O)[C@H](Cc2ccccc2)NC(=O)CSC[C@@H](C(N)=O)NC(=O)[C@H](Cc2ccccc2)NC1=O` [CH2 CO.FYWD KTFC.amide] ({CH2CO}-FY[dW]KTFC-NH2; thioether N-7), the Ki was 0.16 nM.

Compound `C[C@@H](O)[C@@H]1NC(=O)[C@H](CCCCN)NC(=O)[C@@H](Cc2c[nH]c3ccccc23)NC(=O)[C@H](Cc2ccccc2)NC(=O)[C@H](Cc2ccccc2)NC(=O)CSC[C@@H](C(=O)O)NC(=O)[C@H](Cc2ccccc2)NC1=O` [CH2 CO.FFWD KTFC] ({CH2CO}-FF[dW]KTFC-OH; thioether N-7) has a Ki of 4 nM.

`CC(C)[C@@H]1NC(=O)[C@H](CCCCN)NC(=O)[C@@H](Cc2c[nH]c3ccccc23)NC(=O)[C@H](Cc2ccc(O)cc2)NC(=O)[C@H](Cc2ccccc2)N(C)C(=O)[C@H](CCCCNC(=O)CCCCN(CCNCC(C)(C)S)CC(C)(C)S)NC1=O` [cyclo.(N--CH3)F.YWD KV.K.[BAT], cyclo.(N--CH3)Phe--Tyr--D--Trp--Lys--Val--Lys(BAT)] (cyclo([NMeF]Y[dW]KVK(X9))) was tested, and the Ki was 0.46 nM.

Work on `CC(C)[C@@H]1NC(=O)[C@H](CCCCN)NC(=O)[C@@H](Cc2c[nH]c3ccccc23)NC(=O)[C@H](Cc2ccc(O)cc2)NC(=O)[C@H](CS)NC(=O)[C@H](CS)NC1=O` [cyclo.CYWD KVC, cyclo Cys--Tyr--D--Trp--Lys--Val--Cys] (cyclo(CY[dW]KVC)) yielded a Ki of 0.43 nM.
